Experimental data from ChEMBL document CHEMBL1201862, “PubChem BioAssay data set” (2004).
Activity calls are given as the source filed them.

How the values were obtained:
[1] = biological target: Glycogen synthase kinase-3 beta (Homo sapiens, UniProt P49841); type: functional;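 further: value comes from a broad kinome profiling panel, with GSK3B as the panel member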
[2] = biological target: Serine/threonine-protein kinase pim-1 (Homo sapiens, UniProt P11309); type: functional
[3] = biological target: Serine/threonine-protein kinase pim-3 (Homo sapiens, UniProt Q86V86); type: functional;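 further: value obtained as one member of a broad kinase panel profiling effort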
[4] = biological target: Mitogen-activated protein kinase kinase kinase kinase 4 (Homo sapiens, UniProt O95819); type: functional
Sequence of Mitogen-activated protein kinase kinase kinase kinase 4 (O95819 whole entry): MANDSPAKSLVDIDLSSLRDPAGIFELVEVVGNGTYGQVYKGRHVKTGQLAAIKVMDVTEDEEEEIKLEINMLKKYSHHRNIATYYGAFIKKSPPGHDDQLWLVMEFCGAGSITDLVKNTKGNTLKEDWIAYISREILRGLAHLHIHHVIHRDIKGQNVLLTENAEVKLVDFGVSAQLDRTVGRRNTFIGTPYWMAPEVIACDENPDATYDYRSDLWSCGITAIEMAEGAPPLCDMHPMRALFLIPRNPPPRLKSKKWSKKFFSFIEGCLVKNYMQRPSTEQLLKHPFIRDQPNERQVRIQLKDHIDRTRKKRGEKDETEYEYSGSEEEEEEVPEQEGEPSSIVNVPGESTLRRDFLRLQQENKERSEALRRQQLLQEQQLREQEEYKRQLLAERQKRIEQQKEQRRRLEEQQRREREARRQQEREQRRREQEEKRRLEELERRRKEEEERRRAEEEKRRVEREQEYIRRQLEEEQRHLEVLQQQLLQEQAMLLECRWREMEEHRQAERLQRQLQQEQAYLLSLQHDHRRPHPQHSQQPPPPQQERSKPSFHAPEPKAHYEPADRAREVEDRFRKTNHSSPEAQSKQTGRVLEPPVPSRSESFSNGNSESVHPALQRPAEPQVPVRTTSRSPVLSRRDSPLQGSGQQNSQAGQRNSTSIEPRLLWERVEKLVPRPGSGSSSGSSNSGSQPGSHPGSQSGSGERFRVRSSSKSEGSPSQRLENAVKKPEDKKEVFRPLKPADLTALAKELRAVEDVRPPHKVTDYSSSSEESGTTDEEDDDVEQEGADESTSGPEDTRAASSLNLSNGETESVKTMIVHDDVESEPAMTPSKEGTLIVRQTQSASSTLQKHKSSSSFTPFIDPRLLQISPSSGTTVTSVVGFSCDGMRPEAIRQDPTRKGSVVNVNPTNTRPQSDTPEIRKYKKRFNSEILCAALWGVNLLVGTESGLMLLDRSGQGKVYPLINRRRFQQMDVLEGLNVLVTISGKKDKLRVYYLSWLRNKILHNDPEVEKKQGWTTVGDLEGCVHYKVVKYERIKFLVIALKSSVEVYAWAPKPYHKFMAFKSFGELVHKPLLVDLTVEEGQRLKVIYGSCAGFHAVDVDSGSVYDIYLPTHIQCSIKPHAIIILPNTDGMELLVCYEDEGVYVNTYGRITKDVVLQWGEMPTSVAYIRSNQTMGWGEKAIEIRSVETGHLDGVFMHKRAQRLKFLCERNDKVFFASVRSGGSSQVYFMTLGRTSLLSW

[5] = biological target: Serine/threonine-protein kinase BRSK1 (Homo sapiens, UniProt Q8TDC3); type: functional;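 further: measured within a kinome-wide kinase panel, with the target listed as KIAA1811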
Sequence of Serine/threonine-protein kinase BRSK1 (Q8TDC3 whole entry): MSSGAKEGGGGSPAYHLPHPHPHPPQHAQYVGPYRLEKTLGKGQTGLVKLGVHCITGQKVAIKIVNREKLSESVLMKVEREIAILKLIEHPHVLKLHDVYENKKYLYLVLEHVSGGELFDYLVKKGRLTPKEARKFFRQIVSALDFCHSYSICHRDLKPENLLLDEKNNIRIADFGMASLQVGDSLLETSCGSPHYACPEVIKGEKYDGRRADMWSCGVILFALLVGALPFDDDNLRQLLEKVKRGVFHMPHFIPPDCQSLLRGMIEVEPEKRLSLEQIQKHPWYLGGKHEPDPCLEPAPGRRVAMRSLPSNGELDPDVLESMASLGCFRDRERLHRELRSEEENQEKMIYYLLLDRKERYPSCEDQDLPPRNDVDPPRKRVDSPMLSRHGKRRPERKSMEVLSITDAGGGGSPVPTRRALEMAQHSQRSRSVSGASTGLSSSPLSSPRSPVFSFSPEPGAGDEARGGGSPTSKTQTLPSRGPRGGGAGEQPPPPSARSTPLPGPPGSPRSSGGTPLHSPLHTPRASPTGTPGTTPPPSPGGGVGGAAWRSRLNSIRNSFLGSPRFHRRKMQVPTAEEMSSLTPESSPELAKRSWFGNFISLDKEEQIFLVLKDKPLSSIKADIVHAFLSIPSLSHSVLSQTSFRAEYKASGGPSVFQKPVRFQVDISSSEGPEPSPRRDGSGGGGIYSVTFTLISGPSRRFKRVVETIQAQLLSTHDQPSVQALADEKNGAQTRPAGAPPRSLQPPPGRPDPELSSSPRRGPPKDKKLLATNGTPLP

[6] = biological target: Mitogen-activated protein kinase kinase kinase kinase 5 (Homo sapiens, UniProt Q9Y4K4); type: functional;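 further: measured as one member of a kinome-spanning kinase panel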
[7] = biological target: Peroxisome proliferator-activated receptor gamma/Nuclear receptor coactivator 2 (Homo sapiens, UniProt P37231); assay: (§1) TR-FRET dose response biochemical High Throughput Screening assay for agonists of the steroid receptor coactivator 2 (SRC-2) recruitment by the peroxisome proliferator-activated receptor gamma (PPAR gamma): non-selective agonists. [Related pubchem assays: 1297, 1032 ]; type: functional
[8] = biological target: Peroxisome proliferator-activated receptor gamma/Nuclear receptor coactivator 3 (Homo sapiens, UniProt P37231); assay: as §1, with “3 (SRC-3)” for “2 (SRC-2)”, “1301 (Confirmation screen.), 1048 (Primary screen.)]” for “1297, 1032 ]”; type: functional
[9] = biological target: Peroxisome proliferator-activated receptor gamma/Nuclear receptor coactivator 1 (Homo sapiens, UniProt P37231); assay: as §1, with “1 (SRC-1)” for “2 (SRC-2)”, “assays (depositor defined):AID1300, AID1808, AID504735, AID631]” for “assays: 1297, 1032 ]”; type: protein assay
Phospholipase A2 = Phospholipase A2 (Homo sapiens, UniProt P04054); type: functional;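 further: confirmatory dose-response counterscreen on phospholipase A2, testing hits that came from an ultra-high-throughput screen for ATG4B inhibitors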
Cysteine protease ATG4B = Cysteine protease ATG4B (Homo sapiens, UniProt Q9Y4P1); type: functional;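 further: Fluorescence-based dose-response confirmation assay measuring inhibition of ATG4B activity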
Sequence of Cysteine protease ATG4B (Q9Y4P1 whole entry): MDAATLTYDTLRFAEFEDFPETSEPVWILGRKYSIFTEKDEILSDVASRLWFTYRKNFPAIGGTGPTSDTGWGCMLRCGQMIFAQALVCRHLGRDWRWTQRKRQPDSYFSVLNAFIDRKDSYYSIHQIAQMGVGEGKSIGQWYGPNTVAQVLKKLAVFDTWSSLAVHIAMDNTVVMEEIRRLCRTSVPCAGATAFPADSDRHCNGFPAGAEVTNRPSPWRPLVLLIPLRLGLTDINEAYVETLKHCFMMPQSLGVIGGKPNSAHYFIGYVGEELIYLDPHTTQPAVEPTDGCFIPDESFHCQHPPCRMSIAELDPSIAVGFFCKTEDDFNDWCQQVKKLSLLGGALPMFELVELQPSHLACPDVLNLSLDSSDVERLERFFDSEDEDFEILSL

Mu-type opioid receptor [10] = biological target: T1, Mu-type opioid receptor (Homo sapiens, UniProt P35372); assay: mu opioid receptor blockers – image-based, SAR follow-up (AID 2420); type: functional;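 further: compounds added before stimulation of receptor with agonist DAMGO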
T1 sequence (P35372 whole entry): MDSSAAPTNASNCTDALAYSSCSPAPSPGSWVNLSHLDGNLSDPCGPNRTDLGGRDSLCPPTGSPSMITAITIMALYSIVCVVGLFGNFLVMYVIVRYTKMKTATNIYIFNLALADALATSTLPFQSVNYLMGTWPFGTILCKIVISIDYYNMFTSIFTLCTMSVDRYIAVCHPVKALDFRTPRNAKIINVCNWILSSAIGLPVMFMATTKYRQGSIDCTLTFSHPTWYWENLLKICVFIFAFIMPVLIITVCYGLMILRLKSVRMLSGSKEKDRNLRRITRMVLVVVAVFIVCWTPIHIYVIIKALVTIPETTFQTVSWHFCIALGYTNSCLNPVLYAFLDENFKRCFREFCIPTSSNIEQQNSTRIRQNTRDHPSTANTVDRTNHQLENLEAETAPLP

[11] = biological target: T2, Kappa-type opioid receptor (Homo sapiens, UniProt P41145); assay: SAR analysis of small molecule agonists of the kappa opioid receptor via a luminescent beta-arrestin assay. [Related pubchem assays (depositor defined):AID1777, AID1786, AID1966, AID2133, AID2136, AID2348, AID2352, AID2357, AID2359, AID2370, AID2420, AID2478, AID2491, AID2492, AID2493, AID2497, AID2498, AID2500, AID449737, AID488822, AID488842]; type: functional
T2 sequence (P41145 whole entry): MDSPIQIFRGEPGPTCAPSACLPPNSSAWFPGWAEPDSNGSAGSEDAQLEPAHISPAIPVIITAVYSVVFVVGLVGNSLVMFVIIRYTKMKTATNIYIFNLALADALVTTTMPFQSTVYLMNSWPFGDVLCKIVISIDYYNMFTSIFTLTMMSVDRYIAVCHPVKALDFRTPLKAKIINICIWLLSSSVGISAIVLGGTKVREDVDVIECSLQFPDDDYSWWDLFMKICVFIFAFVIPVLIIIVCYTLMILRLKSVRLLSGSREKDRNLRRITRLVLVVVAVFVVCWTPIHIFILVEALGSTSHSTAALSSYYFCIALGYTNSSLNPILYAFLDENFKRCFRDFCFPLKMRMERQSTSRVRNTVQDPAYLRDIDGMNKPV

[12] = biological target: T3, Delta-type opioid receptor (Homo sapiens, UniProt P41143); assay: delta opioid receptor blockers – image-based, SAR follow-up (AID 2357); type: functional
T3 sequence (P41143 whole entry): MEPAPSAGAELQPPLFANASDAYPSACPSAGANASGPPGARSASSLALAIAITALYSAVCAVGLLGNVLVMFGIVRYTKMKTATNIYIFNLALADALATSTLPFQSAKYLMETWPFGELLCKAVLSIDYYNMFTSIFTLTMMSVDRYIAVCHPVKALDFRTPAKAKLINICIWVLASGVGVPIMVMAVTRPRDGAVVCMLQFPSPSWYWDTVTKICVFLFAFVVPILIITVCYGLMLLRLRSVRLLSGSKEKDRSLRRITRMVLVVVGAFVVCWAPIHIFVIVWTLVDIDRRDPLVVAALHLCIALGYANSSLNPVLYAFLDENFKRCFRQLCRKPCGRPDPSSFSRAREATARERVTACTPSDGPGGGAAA

[13] = biological target: T3, Delta-type opioid receptor; assay: DOR agonists, SAR follow-up, image-based (AID 2370); type: functional
[14] = biological target: T2, Kappa-type opioid receptor; assay: kappa opioid receptor activation potency – imaging, image-based, SAR follow-up (AID 2359); type: functional
[15] = biological target: T2, Kappa-type opioid receptor; assay: kappa opioid receptor blockers, image-based, SAR follow-up (AID 2348); type: functional
Mu-type opioid receptor [16] = biological target: T1, Mu-type opioid receptor; assay: mu opioid receptor activators, image-based, SAR follow-up (AID 2352); type: functional
[17] = biological target: Lysine-specific demethylase 4C (Homo sapiens, UniProt Q9H3R0); assay: inhibition of JMJD2C H3K9me3 demethylation – biochemical, DELFIA europium, cherry-picked samples, dose response (AID 488835); type: functional
Sequence of Lysine-specific demethylase 4C (Q9H3R0 whole entry): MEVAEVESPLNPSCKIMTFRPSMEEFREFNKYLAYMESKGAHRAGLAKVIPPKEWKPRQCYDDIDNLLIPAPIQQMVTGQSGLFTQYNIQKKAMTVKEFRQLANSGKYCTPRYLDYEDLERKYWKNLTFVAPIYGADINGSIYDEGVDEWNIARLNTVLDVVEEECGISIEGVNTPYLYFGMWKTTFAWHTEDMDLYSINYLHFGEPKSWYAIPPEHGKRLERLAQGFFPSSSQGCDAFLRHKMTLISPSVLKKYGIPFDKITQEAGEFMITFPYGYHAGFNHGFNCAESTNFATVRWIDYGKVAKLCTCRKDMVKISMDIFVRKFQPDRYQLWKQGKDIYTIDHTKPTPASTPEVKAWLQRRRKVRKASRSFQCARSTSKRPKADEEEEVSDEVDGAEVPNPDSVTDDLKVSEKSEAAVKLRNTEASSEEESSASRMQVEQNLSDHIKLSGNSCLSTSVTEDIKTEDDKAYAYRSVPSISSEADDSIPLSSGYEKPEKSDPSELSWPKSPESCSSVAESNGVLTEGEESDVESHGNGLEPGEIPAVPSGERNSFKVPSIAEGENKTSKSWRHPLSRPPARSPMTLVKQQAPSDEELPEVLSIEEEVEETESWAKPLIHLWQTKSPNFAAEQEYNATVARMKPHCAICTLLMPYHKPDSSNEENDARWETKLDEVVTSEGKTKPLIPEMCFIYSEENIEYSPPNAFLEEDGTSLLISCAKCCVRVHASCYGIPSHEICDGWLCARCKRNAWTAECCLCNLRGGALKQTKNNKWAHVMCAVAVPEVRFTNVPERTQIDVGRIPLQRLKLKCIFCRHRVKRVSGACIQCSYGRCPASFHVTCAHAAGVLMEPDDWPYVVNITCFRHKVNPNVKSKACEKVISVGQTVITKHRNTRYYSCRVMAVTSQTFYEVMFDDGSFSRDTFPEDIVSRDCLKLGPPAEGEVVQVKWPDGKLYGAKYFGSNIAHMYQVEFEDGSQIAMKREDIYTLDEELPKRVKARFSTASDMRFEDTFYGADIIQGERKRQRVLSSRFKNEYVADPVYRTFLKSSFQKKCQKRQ

Troponin, cardiac muscle = Troponin, cardiac muscle (Homo sapiens, UniProt P19429+P45379+P63316); assay: Fluorescence-based biochemical high throughput dose response assay for activators of the calcium sensitivity of cardiac Regulated Thin Filaments (RTF). [Related pubchem assays (depositor defined):AID493008, AID493018, AID504382, AID504383]; type: protein-complex assay
[18] = biological target: T4, Endoribonuclease toxin MazF (Escherichia coli K-12, UniProt P0AE70); assay: substrate-only fluorescence increase artefacts – biochemical, single-stranded RNase substrate, counter-screen for MazEF activator project, dose response (AID 588502); type: functional
T4 sequence (P0AE70 whole entry): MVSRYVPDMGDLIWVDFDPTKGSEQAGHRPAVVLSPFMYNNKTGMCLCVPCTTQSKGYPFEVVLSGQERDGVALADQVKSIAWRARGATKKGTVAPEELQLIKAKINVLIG

[19] = viability of uninfected HEp-2 cells – cell-based, HTS, cytotoxicity control for RSV inhibitor project, dose response (AID 2410); type: functional; settings: human respiratory syncytial virus
[20] = biological target: T4, Endoribonuclease toxin MazF; assay: activation of MazEF endoribonuclease cleavage – biochemical, fluorescence, single-stranded RNA substrate, uHTS hits, dose response (AID 588481); type: functional

SMILES: O=c1cc(C(F)(F)F)c2c(-c3cccc(C(F)(F)F)c3)n[nH]c2[nH]1
- Ki [1]: 5.01 µM (active)
- Ki [2]: 5.01 µM (active)
- Ki [3]: 2 µM (active)
- Ki [4]: 5.01 µM (active)
- Ki [5]: 7.94 µM (active)
- Ki [6]: 5.01 µM (active)

SMILES: Cc1nc(-c2ccccc2)sc1-c1nc(-c2ccccc2)ncc1S(=O)(=O)c1ccccc1
- EC50 [7]: 38.2 µM (not active)
- EC50 [8]: 61.8 µM (not active)
- EC50 [9]: > 26.5 µM (inactive)

SMILES: Cc1nn(Cc2c(Cl)cccc2Cl)c(C)c1NC(=O)CCCn1nc([N+](=O)[O-])c(Cl)c1C
- IC50 (Phospholipase A2): 9.06 µM (active)
- IC50 (Cysteine protease ATG4B): 9.88 µM (active)

SMILES: CCCN(Cc1cc2cc(C)ccc2[nH]c1=O)C(=O)c1ccccn1
- IC50 (Mu-type opioid receptor [10]): > 32 µM (inactive)
- EC50 [11]: > 10 µM (inactive)
- IC50 [12]: > 32 µM (inactive)
- EC50 [13]: > 32 µM (inactive)
- EC50 [14]: > 32 µM (inactive)
- IC50 [15]: > 32 µM (inactive)
- EC50 (Mu-type opioid receptor [16]): > 32 µM (inactive)

SMILES: CN(C)c1ccc(C(=O)OCC(=O)N2CCCC2)cc1
- AC50 [17]: 10.6 µM (active)

SMILES: O=[N+]([O-])c1ccc(N2CCCC2)c2ncccc12
- EC50 (Troponin, cardiac muscle): 12.1 µM (inactive)
- EC50 [18]: > 99 µM (inactive)
- CC50 [19]: > 50 µM (active)
- EC50 [20]: > 99 µM (inactive)

SMILES: CC(Sc1nc2c(cc1C#N)CCCCC2)C(=O)O (centres undefined)
- AC50 [17]: > 60 µM (inactive)
